# According to patent publication US8945596B2, “Antimicrobial composition” (Conopco, Inc., priority 2008, dated 2015):
# Assays:
# Type in all cases: cell-based
# Entereobacter = experiment: Viable bacteria remaining after 15 seconds of contact with the actives; details: 15 seconds contact, culture added 6.87
# Description: (§1) About 10^7 bacterial cells (E. coli ATCC 10536) were taken in a test tube and contacted with various compositions for a period of 15 seconds. Bacteria were taken out after 15 seconds of contact and presence of viable cells was determined by serial dilution and plating on agar plates. The data is presented in log (Viable E. Coli) which is the log10 of the number of viable E. Coli remaining after 15 seconds of contact. Thus if 10^4 remained, log (Viable E. Coli) is 4.
# (§2) The combination of thymol (0.2%) and terpineol (0.5%) was tested for its efficacy in inhibiting growth of various other bacteria after they are contacted with this combination for about 15 seconds. Similar experiments were carried out with another well known antibacterial active TCC (trichloro carbanilide). The experiments were carried out similar to those of Examples 1 to 3 and the data on the viable bacteria remaining after contact with the actives for 15 seconds is summarized in Table 3
# Klebsiella = experiment: as above; details: 15 seconds contact, culture added 7.35
# Description: as §1, §2
# Salmonella = experiment: as above; details: 15 seconds contact, culture added 7.63
# Description: as §1, §2
# Vibrio cholerae = experiment: as above; details: 15 seconds contact, culture added 7.58
# Description: as §1, §2
# E. coli ATCC 10536 = experiment: Bacterial kill in test tube after 15 seconds of contact, serial dilution and plating; details: log10 of viable E. coli remaining after 15 seconds of contact; about 10^7 cells initially; water as carrier
# Description: Compositions comprising each individual active and a combination were prepared with water as a carrier (details given in Table 1 below). Terpineol and thymol were obtained from […] aromas, India. […] The data is presented in log (Viable E. Coli) which is the log10 of the number of viable E. […] Eucalyptol and linalool were obtained from Fluka. […] The data in log (Viable E.
# [1] = test system: Streptococcus mutans ATCC 25175; experiment: Oxoplate oxygen depletion growth assay; details: no oxygen depletion over 18 hours
# Description: (§3) The anti-bacterial activity of the composition of the invention against a commonly found Gram positive oral bacteria viz. Streptococcus mutans ATCC 25175 and a Gram negative oral bacteria Neisseria subflava ATCC 19243) was determined. This was investigated using Oxoplates. Oxoplates monitor oxygen depletion within the reaction system (containing bacteria, broth and actives).
# (§4) A Gram positive (Streptococcus mutans ATCC 25175) and a Gram negative (Neisseria subflava ATCC 19243) bacterium were selected for testing the active solutions. Both bacteria were grown on BHIS agar plates for 24 hours at 37° C./15% CO2, they were then suspended in PBS to a McFarland standard of 2 (˜6×10^8 cells).
# (§5) Each active was dissolved in 50% ethanol solutions for testing. All solutions were made at 10 times concentrated to allow for dilution in the plate. Reduced concentrations were used for N. subflava due to the greater sensitivity of this organism to biocides,
# (§6) The following components were placed into the wells of the Oxoplates, • 170 µl BHI broth • 20 µl test solution • 10 µl bacteria
# (§7) The broth was placed into the Oxoplate first, followed by the test solution, and then the bacterium. Water or 50% ethanol controls were also used in each plate. All solutions were tested in replicates of four. The plates were placed into the fluorescent plate reader, incubated at 37° C. and measured every 15 minutes for 18 hours. The sensors on the bottom of the wells were measured at 2 wavelengths, • Indicator (650/[…]) • Reference (590/540 nm).
# (§8) The oxygen concentration was calculated using these values and a calibration performed for maximum and minimum oxygen concentration. A graph was then plotted of the oxygen depletion curves over the 18 hour period, which was used to determine the level at which the bacteria start to deplete the oxygen.
# [2] = test system: Neisseria subflava ATCC 19243; experiment: Oxoplate oxygen depletion growth assay; details: no oxygen depletion over 18 hours
# Description: as §3, §4, §5, §6, §7, §8
compound,measurement,setting,value
"O=C(Nc1ccc(Cl)cc1)Nc1ccc(Cl)c(Cl)c1 [0.2% TCC, trichloro carbanilide]",viable bacteria remaining,Entereobacter,6.87 Log (CFU/ml)
same,viable bacteria remaining,Klebsiella,7.28 Log (CFU/ml)
same,viable bacteria remaining,Salmonella,7.33 Log (CFU/ml)
same,viable bacteria remaining,Vibrio cholerae,7.20 Log (CFU/ml)
"Cc1ccc(C(C)C)c(O)c1 [Example 1, Thymol]",Log (Viable E. coli),E. coli ATCC 10536,3.1
"Cc1ccc(C(C)C)c(O)c1 [Example 25, Thymol]",Concentration of active (wt %) at no growth,[1]; thymol concentration,Thymol (0.08%) wt %
"Cc1ccc(C(C)C)c(O)c1 [Example 28, Thymol]",Concentration of active (wt %) at no growth,[2]; thymol concentration,Thymol (0.02%) wt %
Terpineol [Example 2],Log (Viable E. coli),E. coli ATCC 10536,6.3
Terpineol [Example 24],Concentration of active (wt %) at no growth,[1]; terpineol concentration,Terpineol (0.4%) wt %
Terpineol [Example 27],Concentration of active (wt %) at no growth,[2]; terpineol concentration,Terpineol (0.08%) wt %
